Data on 7 compounds can be found in US20210230203A1, “Amphiphilic Kanamycin Compositions and Methods” (priority 2020, published 2021).

The subject of one test is Rhodotorula pilimanae. Kind of test: MIC against fungal strains (Table 1). The class given is cell-based.
In another test the test system is Candida albicans MYA2876. Nature of the test: MIC against fungal strains (Table 1). The class given is cell-based. The following applies: Candida albicans MYA2876.
Test [1] has as its system Cryptococcus neoformans H99. Nature of the test: MIC against fungal strains (Table 1). The class given is cell-based. The following applies: Cryptococcus neoformans H99.
The next test concerns Candida albicans 64124. Nature of the test: MIC against fungal strains (Table 1). The class given is cell-based.
The test system of another test is S. aureus (ATCC 25923). Kind of test: MIC against bacterial strains. The class given is cell-based.
The next test deals with E. coli (25922). Nature of the test: MIC against bacterial strains. The class given is cell-based.
The subject of test [2] is Fusarium graminearum B4-5A. Kind of test: microbe, parasite or virus in culture. The class given is cell-based. The conditions noted are these: Fusarium graminearum B4-5A.
For test [3], the system named is S. aureus (ATCC 33591) MRSA. The class given is cell-based.
Test [4] relates to S. aureus (ATCC 43300) MRSA. The class given is cell-based.
The subject of a further test is P. variotil. Nature of the test: MIC against various species, CLSI M27 & M38 (Table 4). The class given is cell-based, Paecilomyces variotii. The conditions noted are these: Paecilomyces variotii, P. variotil QC, RPMI 0.165M MOPS, 24-72 hours, read-out: Minimum inhibitory concentration 100%.
The next test has as its system Rhizopus arrhizus. Nature of the test: MIC against filamentous and dimorphic fungi, CLSI M27 & M38 (Table 3). The conditions noted are these: Rhizopus arrhizus, 24-72 hours, read-out: Minimum inhibitory concentration 100%. The class given is cell-based.
Another test relates to Apaphysomyces. Nature of the test: MIC against various species, CLSI M27 & M38 (Table 4). The following applies: 24-72 hours, read-out: Minimum inhibitory concentration 100%. The class given is cell-based, Apophysomyces.
Another test concerns Saksenaea sp. Nature of the test: MIC against filamentous and dimorphic fungi, CLSI M27 & M38 (Table 3). The class given is cell-based, Saksenaea species. The following applies: 24-72 hours, read-out: Minimum inhibitory concentration 100%.
The subject of a further test is P. variatii. The test is described as above. The class given is cell-based, Paecilomyces variotii. The conditions noted are these: Paecilomyces variotii, P. variatii MYA-3630, RPMI 0.165M MOPS, 24-72 hours, read-out: Minimum inhibitory concentration 100%.

In brackets after ≈: the same amount, converted by molar mass. Read-outs that look alike come from different tables or passages of the source.

`N[C@@H]1[C@@H](O)[C@@H](O[C@@H]2[C@@H](O)[C@H](O[C@H]3O[C@H](CNC(=O)c4cc(-c5ccccc5)nc5ccccc45)[C@@H](O)[C@H](O)[C@H]3O)[C@@H](N)C[C@H]2N)O[C@H](CO)[C@H]1O` [KI08]: the Minimum inhibitory concentration is 256 µg/mL (≈ 358 µM) with Rhodotorula pilimanae; greater than 256 µg/mL in the test on Candida albicans MYA2876; 128 µg/mL (≈ 179 µM) in test [1]; greater than 256 µg/mL with Candida albicans 64124; greater than 256 µg/mL in the test with S. aureus (ATCC 25923); greater than 256 µg/mL with E. coli (25922). Moreover, the Minimum inhibitory concentration in test [2] was greater than 256 µg/mL.
For the compound `CCCCCCCCCCCCCC(=O)NCC1O[C@H](OC2C(N)CC(N)C(OC3O[C@H](CO)C(O)C(N)[C@H]3O)[C@H]2O)C(O)C(O)[C@@H]1O` (stereo partly drawn) [KI05], the Minimum inhibitory concentration with Rhodotorula pilimanae was 4 µg/mL (≈ 5.76 µM); in the test with Candida albicans MYA2876 it was 16 µg/mL (≈ 23 µM); in test [1], 4 µg/mL (≈ 5.76 µM); in test [3], 32 µg/mL (≈ 46.1 µM); in the test with Candida albicans 64124, 16 µg/mL (≈ 23 µM); in [4], 32 µg/mL (≈ 46.1 µM). Also, the Minimum inhibitory concentration with S. aureus (ATCC 25923) is 16 µg/mL (≈ 23 µM); in the test with E. coli (25922), 64 µg/mL (≈ 92.1 µM); in test [2], 8 µg/mL (≈ 11.5 µM).
As for `CCCCCCCC(=O)NCC1O[C@H](OC2C(N)CC(N)C(OC3O[C@H](CO)C(O)C(N)[C@H]3O)[C@H]2O)C(O)C(O)[C@@H]1O` (stereo partly drawn) [KI02], the Minimum inhibitory concentration (in the test with Rhodotorula pilimanae; with Candida albicans MYA2876; in [1]; in the test on Candida albicans 64124; with S. aureus (ATCC 25923); in the test on E. coli (25922)) was greater than 256 µg/mL throughout. In [2], this compound came in with a Minimum inhibitory concentration greater than 256 µg/mL.
As to Neomycin [reference compound], the Minimum inhibitory concentration with S. aureus (ATCC 25923) and in the test on E. coli (25922) was 2 µg/mL in each case.
On to `CC[C@@H]([C@H](C)O)n1ncn(-c2ccc(N3CCN(c4ccc(OC[C@@H]5CO[C@@](Cn6cncn6)(c6ccc(F)cc6F)C5)cc4)CC3)cc2)c1=O` [Posaconazole, reference compound], for which the MIC was no more than 0.03 µg/mL with P. variotil; 1 µg/mL (≈ 1.43 µM) in the test with Rhizopus arrhizus (Rhizopus arrhizus 99-880, RPMI 0.165M MOPS); 0.25 µg/mL (≈ 0.357 µM) in the test on Rhizopus arrhizus (Rhizopus arrhizus 99-892, RPMI 0.165M MOPS); 0.25 µg/mL (≈ 0.357 µM) in the test on Rhizopus arrhizus (Rhizopus arrhizus RA1, RPMI 0.165M MOPS); 0.125 µg/mL (≈ 0.178 µM) with Apaphysomyces (Apaphysomyces APO1, RPMI 0.165M MOPS); 0.125 µg/mL (≈ 0.178 µM) with Apaphysomyces (Apaphysomyces APO2, RPMI 0.165M MOPS). For the same compound, the MIC in the test on Apaphysomyces (Apaphysomyces APO3, RPMI 0.165M MOPS) is 0.25 µg/mL (≈ 0.357 µM); in the test on Saksenaea sp. (Saksenaea sp. SK1, RPMI 0.165M MOPS), no more than 0.03 µg/mL; in the test on Saksenaea sp. (Saksenaea sp. SK2, RPMI 0.165M MOPS), no more than 0.03 µg/mL; in the test with Saksenaea sp. (Saksenaea sp. SK3, RPMI 0.165M MOPS), 0.125 µg/mL (≈ 0.178 µM); with P. variatii, no more than 0.03 µg/mL.
As to `CCCCCCCCCCCC(=O)NC[C@H]1O[C@H](O[C@H]2[C@H](O)[C@@H](O[C@H]3O[C@H](CO)[C@@H](O)[C@H](N)[C@H]3O)[C@H](N)C[C@@H]2N)[C@H](O)[C@@H](O)[C@@H]1O` [KI04], the Minimum inhibitory concentration in the test on Rhodotorula pilimanae was 16 µg/mL (≈ 24 µM); in the test on Candida albicans MYA2876, 32 µg/mL (≈ 48 µM); in [1], 8 µg/mL (≈ 12 µM); in test [3], 128 µg/mL (≈ 192 µM); in the test on Candida albicans 64124, 32 µg/mL (≈ 48 µM); in [4], 128 µg/mL (≈ 192 µM). For the same compound, the Minimum inhibitory concentration was determined as 32 µg/mL (≈ 48 µM) with S. aureus (ATCC 25923), 32 µg/mL (≈ 48 µM) in the test with E. coli (25922) and 16 µg/mL (≈ 24 µM) in [2].
As to `NC1CC(N)C(O[C@H]2OC(CNC(=O)CCCc3ccc4ccc5cccc6ccc3c4c56)[C@@H](O)C(O)C2O)[C@H](O)C1OC1O[C@H](CO)C(O)C(N)[C@H]1O` (stereo partly drawn) [KI09], the Minimum inhibitory concentration with Rhodotorula pilimanae stood at 16 µg/mL (≈ 21.2 µM); with Candida albicans MYA2876, 16 µg/mL (≈ 21.2 µM); in test [1] it was 16 µg/mL (≈ 21.2 µM); in [3] it was 128 µg/mL (≈ 170 µM); in the test with Candida albicans 64124 it was 16 µg/mL (≈ 21.2 µM); in [4], 32 µg/mL (≈ 42.4 µM). The values for the Minimum inhibitory concentration (with S. aureus (ATCC 25923); with E. coli (25922); in test [2]) were 32 µg/mL (≈ 42.4 µM), 128 µg/mL (≈ 170 µM) and 16 µg/mL (≈ 21.2 µM), respectively.
